US20260022143A1, “Cyclic Peptide Inhibitors of IL-23” (JANSSEN PHARMACEUTICA NV, priority 2022, published 2026)
pIC50: −log10 of the molar value. Starred links: 1 amine or outer side, 2 acyl side, 3 side chain; linkers in the order of their positions; H or OH if unused. Positions of bridges follow the written chain, without caps; N, C: chain ends. Non-standard residues stand in square brackets, D forms with d. Residues, ends and D or L forms follow the SMILES beside them. *: point of attachment. Me3N+(CH2)2O(CH2)2O(CH2)2CO = C[N+](C)(C)CCOCCOCCC(=O)*; Abu(4-yl) = O=C([C@H](CC[*:3])N[*:1])[*:2]; Lys(Me3) = C[N+](C)(C)CCCC[C@H](N)C(=O)O; 2Nal = N[C@@H](Cc1ccc2ccccc2c1)C(=O)O; 3Pal = N[C@@H](Cc1cccnc1)C(=O)O; αMeC = C[C@](N)(CS)C(=O)O; Thp = NC1(C(=O)O)CCOCC1; X3 = C[N+](C)(C)CCCCC*; Sar = CNCC(=O)O

Legend:
[1] = Exposed Polar Surface Area (EPSA); format: physicochemical; conditions: SFC on Chirex 3014 column; sample 1 mM DMSO stock; read-out: EPSA
Summary of the method: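 SFC retention on a Chirex 3014 (S-valine/(R)-1-(α-naphthyl)ethylamine) column at 35 °C, 4 mL/min, 14 MPa outlet, 5–60% methanol/20 mM ammonium formate gradient in CO2. Retention times converted to EPSA (Å²) via linear calibration with 8 standards; samples from 1 mM DMSO stock, run in duplicate.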

IL-23R = target: T1, IL-23R (Homo sapiens, UniProt Q5VWK5); assay: IL23R Reporter Assay; format: cell-based; conditions: HEK293 cells containing IL-23R, IL-12RP1 and STAT-inducible firefly luciferase reporter; 10 ng/mL IL-23 (EC90); 5 h at 37° C.; read-out: IL23R Reporter Assay
T1 construct: host or cells: HEK293
T1 sequence (Q5VWK5 24-629): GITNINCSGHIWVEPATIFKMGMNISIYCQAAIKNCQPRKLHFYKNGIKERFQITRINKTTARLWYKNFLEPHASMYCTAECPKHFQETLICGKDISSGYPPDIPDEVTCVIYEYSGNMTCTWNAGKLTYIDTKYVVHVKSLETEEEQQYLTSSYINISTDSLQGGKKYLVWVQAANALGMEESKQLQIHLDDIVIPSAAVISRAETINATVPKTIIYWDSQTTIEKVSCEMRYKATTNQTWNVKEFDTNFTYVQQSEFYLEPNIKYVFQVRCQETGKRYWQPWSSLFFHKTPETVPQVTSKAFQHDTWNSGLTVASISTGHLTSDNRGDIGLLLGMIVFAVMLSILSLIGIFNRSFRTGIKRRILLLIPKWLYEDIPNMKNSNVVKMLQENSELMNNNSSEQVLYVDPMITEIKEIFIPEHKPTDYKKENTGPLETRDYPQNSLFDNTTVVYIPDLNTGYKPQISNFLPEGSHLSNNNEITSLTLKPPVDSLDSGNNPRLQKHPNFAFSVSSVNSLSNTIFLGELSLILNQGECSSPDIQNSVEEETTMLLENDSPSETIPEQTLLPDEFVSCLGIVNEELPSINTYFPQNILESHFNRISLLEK

With `CC(=O)NCCCC[C@@H]1NC(=O)[C@H](Cc2c[nH]c3ccccc23)NC(=O)[C@H]([C@@H](C)O)NC(=O)[C@H](CC(N)=O)NC(=O)[C@@H](NC(=O)[C@H](CCCNC(=N)N)NC(=O)CCOCCOCC[N+](C)(C)C)CCSC[C@@](C)(C(=O)N[C@@H](Cc2ccc(OCCCCC[N+](C)(C)C)cc2)C(=O)N[C@@H](Cc2ccc3ccccc3c2)C(=O)NC2(C(=O)N[C@@H](CCC(=O)O)C(=O)N[C@@H](CC(N)=O)C(=O)N[C@@H](Cc3cccnc3)C(=O)N(C)CC(N)=O)CCOCC2)NC1=O` [compound 516, cPEG3aCO-r-Abu(1)-N-T-W-K(Ac)-aMeC(1)-TMAPF-2Nal-THP-E-N-3Pya-Sar-CONH2] ({Me3N+(CH2)2O(CH2)2O(CH2)2CO}-R[Abu(4-yl)]NTWK(Ac)[αMeC]Y(X3)[2Nal][Thp]EN[3Pal][Sar]-NH2; thioether 2-7) the EPSA [1] was 237 A^2 and the pIC50 (IL-23R) was 7.30.
`CC(=O)NCCCC[C@@H]1NC(=O)[C@H](Cc2c[nH]c3ccccc23)NC(=O)[C@H]([C@@H](C)O)NC(=O)[C@H](CC(N)=O)NC(=O)[C@@H](NC(=O)[C@H](CCCC[N+](C)(C)C)NC(C)=O)CCSC[C@@](C)(C(=O)N[C@@H](Cc2ccc(OCCCCC[N+](C)(C)C)cc2)C(=O)N[C@@H](Cc2ccc3ccccc3c2)C(=O)NC2(C(=O)N[C@@H](CCCCNC(C)=O)C(=O)N[C@@H](CC(N)=O)C(=O)N[C@@H](Cc3cccnc3)C(=O)N(C)CC(N)=O)CCOCC2)NC1=O` [compound 517, MeCO-k(Me)3-Abu(1)-N-T-W-K(Ac)-aMeC(1)-TMAPF-2Nal-THP-K(Ac)-N-3Pya-Sar-CONH2] (Ac-[Lys(Me3)][Abu(4-yl)]NTWK(Ac)[αMeC]Y(X3)[2Nal][Thp]K(Ac)N[3Pal][Sar]-NH2; thioether 2-7) showed an EPSA [1] of 241 A^2 and a pIC50 (IL-23R) of 7.29.
Work on `CC(=O)NCCCC[C@@H]1NC(=O)[C@H](Cc2c[nH]c3ccccc23)NC(=O)[C@H]([C@@H](C)O)NC(=O)[C@H](CC(N)=O)NC(=O)[C@@H](NC(=O)[C@@H](CCCNC(=N)N)NC(=O)CCOCCOCC[N+](C)(C)C)CCSC[C@@](C)(C(=O)N[C@@H](Cc2ccc(OCCCCC[N+](C)(C)C)cc2)C(=O)N[C@@H](Cc2ccc3ccccc3c2)C(=O)NC2(C(=O)N[C@@H](CCCCNC(C)=O)C(=O)N[C@@H](CC(N)=O)C(=O)N[C@@H](Cc3cccnc3)C(=O)N(C)CC(N)=O)CCOCC2)NC1=O` [compound 518, cPEG3aCO-r-Abu(1)-N-T-W-K(Ac)-aMeC(1)-TMAPF-2Nal-THP-K(Ac-N-3Pya-Sar-CONH2] ({Me3N+(CH2)2O(CH2)2O(CH2)2CO}-[dR][Abu(4-yl)]NTWK(Ac)[αMeC]Y(X3)[2Nal][Thp]K(Ac)N[3Pal][Sar]-NH2; thioether 2-7) yielded an EPSA [1] of 230 A^2 and a pIC50 (IL-23R) of 7.74.
With `CC(=O)NCCCC[C@@H]1NC(=O)[C@H](Cc2c[nH]c3c(-c4cccc(NC(C)=O)c4)cccc23)NC(=O)[C@H]([C@@H](C)O)NC(=O)[C@H](CC(N)=O)NC(=O)[C@@H](NC(=O)CCOCCOCC[N+](C)(C)C)C(C)(C)SSC(C)(C)[C@@H](C(=O)N[C@@H](Cc2ccc(OCCNC(=N)N)cc2)C(=O)N[C@@H](Cc2ccc3ccccc3c2)C(=O)NC2(C(=O)N[C@@H](CCCCN(C)C(C)=O)C(=O)N[C@@H](CC(N)=O)C(=O)N[C@@H](Cc3cncc(C)c3)C(=O)N(C)CC(N)=O)CCOCC2)NC1=O` [compound 519, cPEG3aCO-Pen(3)-N-T-7(3NAcPh)W-K(Ac)-Pen(3)-AEF(G)-2Nal-THP-K(NMeAc)-N-3Pya-Sar-CONH2] the EPSA [1] was 186 A^2 and the pIC50 (IL-23R) was 8.74.
